Our source for the IC50 values is US11932658B2 (BRISTOL-MYERS SQUIBB COMPANY, priority 2016, dated 2024).

For the assay, the target named is T1, PAR4 (Homo sapiens, UniProt Q96RI0).
T1 construct: expressed in transfected cells; host or cells: HEK293 PAR4 Clone 1.2A (BMS Arctic ID 383940)
T1 sequence (Q96RI0 18-385): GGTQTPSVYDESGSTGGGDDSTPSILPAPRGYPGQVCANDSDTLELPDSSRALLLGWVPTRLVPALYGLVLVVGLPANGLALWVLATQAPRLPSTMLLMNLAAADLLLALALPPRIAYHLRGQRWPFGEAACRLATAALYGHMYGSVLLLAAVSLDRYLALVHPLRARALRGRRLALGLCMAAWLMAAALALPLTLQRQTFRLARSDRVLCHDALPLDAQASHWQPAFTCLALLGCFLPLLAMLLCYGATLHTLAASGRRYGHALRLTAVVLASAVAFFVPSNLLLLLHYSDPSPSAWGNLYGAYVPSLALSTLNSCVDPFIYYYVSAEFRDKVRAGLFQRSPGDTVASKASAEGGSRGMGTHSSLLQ
Briefly: PAR4 FLIPR assay (antagonism of agonist peptide-induced calcium mobilization). Type of assay: cell-based. An outline of the steps: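 Antagonism was taken as block of calcium mobilization evoked by the agonist peptide H-Ala-Phe(4-F)-Pro-Gly-Trp-Leu-Val-Lys-Asn-[…]-NH2, added after 30 min room-temperature compound preincubation in dye-loaded PAR4-transfected HEK293 cells (endogenous PAR1). Fluorescence was read on FDSS, with compound addition alone used as the agonist counter-screen; values come from 11-point concentration-response curves.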
For orientation: Calcium flux is commonly read through the fluorescence of an indicator in the cells.
Regarding `C=Cc1cc(-c2nc3c(C)cc4c(c3s2)OCC(COC(=O)Nc2ccc(OC)nc2)O4)c2ncc(OC)nc2c1` (stereo not shown) [Example 86, (2-(2-methoxy-7-vinylquinoxalin-5-yl)-4-methyl-7,8-dihydro-[1,4]dioxino[2′,3′:3,4]benzo [1,2-d]thiazol-7-yl)methyl (6-methoxypyridin-3-yl)carbamate], the IC50 was determined as 6.3 nM.

In the case of `COc1cnc2c(-c3nc4cc(F)c5c(c4s3)C[C@H](COC(=O)Nc3ccc(OCCO)nc3)O5)cc(C)cc2n1` [Example 165, (R)-(5-fluoro-2-(2-methoxy-7-methylquinoxalin-5-yl)-7,8-dihydrobenzofuro[5,4-d]thiazo 1-7-yl)methyl (6-(2-hydroxyethoxy)pyridin-3-yl)carbamate], the IC50 was found to be 1 nM.

Take `COc1cnc2c(-c3nc4cc(F)c5c(c4s3)C[C@H](COC(=O)Nc3cnc(OC)nc3)O5)cc(C)cc2n1` [Example 177, (R)-(5-fluoro-2-(2-methoxy-7-methylquinoxalin-5-yl)-7,8-dihydrobenzofuro[5,4-d]thiazol-7-yl)methyl (2-methoxypyrimidin-5-yl)carbamate]: the IC50 stood at 2.8 nM.

Take `COc1cnc2c(-c3nc4cc(F)c5c(c4s3)C[C@H](CO)O5)cc(Cl)cc2c1` [Example 282, (R)-(2-(6-chloro-3-methoxyquinolin-8-yl)-5-fluoro-7,8-dihydrobenzofuro[5,4-d]thiazol-7-yl)methanol]: the IC50 worked out at 36 nM.

`COc1cnc2c(-c3nc4c(Cl)cc5c(c4s3)OC[C@H](COC(=O)Nc3ccc(-n4cnc(C)n4)nc3)O5)cc(C)cc2n1` [Example 69, (R)-(4-chloro-2-(2-methoxy-7-methylquinoxalin-5-yl)-7,8-dihydro-[1,4]dioxino[2′,3′:3,4]benzo[1,2-d]thiazol-7-yl)methyl (6-(3-methyl-1H-1,2,4-triazol-1-yl)pyridin-3-yl) carbamate]: the IC50 was determined as 1.7 nM.

Take `COc1cnc2c(-c3nc4ccc5c(c4s3)C[C@@H](CNC(=O)OC3CCOCC3)O5)cc(C)cc2n1` [Example 227, (S)-tetrahydro-2H-pyran-4-yl ((2-(2-methoxy-7-methylquinoxalin-5-yl)-7,8-dihydrobenzofuro[5,4-d]thiazol-7-yl)methy 1)carbamate]: the IC50 turned out to be 1.3 nM.

For `COc1cnc2c(-c3nc4cc(F)c5c(c4s3)C[C@H](COC(=O)Nc3ccc(C(=O)N(C)C)cc3)O5)cc(C)cc2n1` [Example 204, (R)-(5-fluoro-2-(2-methoxy-7-methylquinoxalin-5-yl)-7,8-dihydrobenzofuro[5,4-d]thiazo 1-7-yl)methyl (4-(dimethylcarbamoyl)phenyl)carbamate], the IC50 came to 2.3 nM.

As for `COc1cnc2c(-c3nc4cc(F)c5c(c4s3)C[C@@H](CNC(=O)Nc3ccccc3)O5)cc(C)cc2n1` [Example 248, (S)-1-((5-fluoro-2-(2-methoxy-7-methylquinoxalin-5-yl)-7,8-dihydrobenzofuro[5,4-d]thiazol-7-yl)methyl)-3-phenylurea], the IC50 amounted to 7 nM.

Take `COc1cnc2c(-c3nc4c(F)cc5c(c4s3)OC[C@H](COC(=O)Nc3ccncc3)O5)cc(C)cc2n1` [Example 73, (R)-(4-fluoro-2-(2-methoxy-7-methylquinoxalin-5-yl)-7,8-dihydro-[1,4]dioxino[2′,3′:3,4]benzo[1,2-d]thiazol-7-yl)methyl pyridin-4-ylcarbamate]: the IC50 was 12 nM.

Turning to `COc1cnc2c(-c3nc4cc(F)c5c(c4s3)C[C@](C)(COC(=O)Nc3cccc(C#N)c3)O5)cc(C)cc2n1` [Example 184, (R)-(5-fluoro-2-(2-methoxy-7-methylquinoxalin-5-yl)-7-methyl-7,8-dihydrobenzofuro[5,4-d]thiazol-7-yl)methyl (3-cyanophenyl)carbamate], the IC50 was 1.8 nM.

For `COc1cnc2c(-c3nc4c(C)cc5c(c4s3)OC[C@H](COC(=O)Nc3cnc(F)c(C)c3)O5)cc(C)cc2n1` [Example 61, (R)-(2-(2-methoxy-7-methylquinoxalin-5-yl)-4-methyl-7,8-dihydro-[1,4]dioxino [2′,3′:3,4]benzo[1,2-d]thiazol-7-yl)methyl (6-fluoro-5-methylpyridin-3-yl)carbamate], the IC50 came out at 23 nM.

`COc1cnc2c(-c3nc4ccc5c(c4s3)OC[C@H](COC(=O)Nc3cnc(OCCO)nc3)O5)cc(Cl)cc2c1` [Example 287, (R)-(2-(6-chloro-3-methoxyquinolin-8-yl)-7,8-dihydro-[1,4]dioxino[2′,3′:3,4]benzo[1,2-d]thiazol-7-yl)methyl (2-(2-hydroxyethoxy)pyrimidin-5-yl)carbamate]: the half-maximal inhibitory concentration (IC50) turned out to be 1.6 nM.

Consider `COc1cnc2c(-c3nc4c(C)cc5c(c4s3)OCC(COC(=O)Nc3cccnc3)O5)cc(Cl)cc2n1` (stereo not shown) [Example 95, (2-(7-chloro-2-methoxyquinoxalin-5-yl)-4-methyl-7,8-dihydro-[1,4]dioxino[2′,3′:3,4]benzo[1,2-d]thiazol-7-yl)methyl pyridin-3-ylcarbamate], for which the IC50 turned out to be 140 nM.

Turning to `COc1cnc2c(-c3nc4cc(F)c5c(c4s3)C[C@@H](CNC(=O)C(F)(F)F)O5)cc(C)cc2n1` [Example 215, (S)-2,2,2-trifluoro-N-((5-fluoro-2-(2-methoxy-7-methylquinoxalin-5-yl)-7,8-dihydrobenzofuro[5,4-d]thiazol-7-yl)methyl)acetamide], the IC50 is 2.3 nM.

As to `COc1cnc2c(-c3nc4c(Cl)cc5c(c4s3)CC(COC(=O)Nc3ccc(C)nc3)O5)cc(CO)cc2n1` (stereo not shown) [Example 148, (4-chloro-2-(7-(hydroxymethyl)-2-methoxyquinoxalin-5-yl)-7,8-dihydrobenzofuro[5,4-d]thiazol-7-yl)methyl (6-methylpyridin-3-yl)carbamate], the IC50 is 0.7 nM.

Regarding `Cc1cc(-c2nc3c(F)cc4c(c3s2)OCC(CNC(=O)OC(C)(C)C)O4)c2ncc(OC(F)F)nc2c1` (stereo not shown) [Example 21, tert-butyl ((2-(2-(difluoromethoxy)-7-methylquinoxalin-5-yl)-4-fluoro-7,8-dihydro-[1,4]dioxino[2′,3′:3,4]benzo[1,2-d]thiazol-7-yl)methyl)carbamate], the IC50 was 10 nM.

As for `COc1cnc2c(-c3nc4cc(F)c5c(c4s3)C[C@@H](CNC(=O)OCc3ccccc3)O5)cc(C)cc2n1` [Example 211, (S)-benzyl ((5-fluoro-2-(2-methoxy-7-methylquinoxalin-5-yl)-7,8-dihydrobenzofuro[5,4-d]thiazol-7-yl)methyl)carbamate], the IC50 came out at 1.3 nM.

Take `COc1cnc2c(-c3nc4cc(F)c5c(c4s3)C[C@H](COC(=O)Nc3cnc(OCCO)nc3)O5)cc(C)cc2n1` [Example 173, (R)-(5-fluoro-2-(2-methoxy-7-methylquinoxalin-5-yl)-7,8-dihydrobenzofuro[5,4-d]thiazo 1-7-yl)methyl (2-(2-hydroxyethoxy)pyrimidin-5-yl)carbamate]: the IC50 worked out at 1.3 nM.

As for `COc1cnc2c(-c3nc4ccc5c(c4s3)C[C@@H](CNS(C)(=O)=O)O5)cc(C)cc2n1` [Example 228, (S)-N-((2-(2-methoxy-7-methylquinoxalin-5-yl)-7,8-dihydrobenzofuro[5,4-d]thiazol-7-yl)methyl)methanesulfonamide], the 50% inhibitory concentration (IC50) was 190 nM.

On to `COc1cnc2c(-c3nc4cc(F)c5c(c4s3)[C@@H](C)[C@H](CO)O5)cc(C)cc2n1` [Example 239, ((7R,8R)-5-fluoro-2-(2-methoxy-7-methylquinoxalin-5-yl)-8-methyl-7,8-dihydrobenzofuro[5,4-d]thiazol-7-yl)methanol], for which the IC50 worked out at 49 nM.

With `COc1ccc(NC(=O)OCC2COc3c(cc(C)c4nc(-c5cc(C(C)O)cc6nc(OC)cnc56)sc34)O2)cn1` (stereo not shown) [Example 88, (2-(7-(1-hydroxyethyl)-2-methoxyquinoxalin-5-yl)-4-methyl-7,8-dihydro-[1,4]dioxino[2′,3′:3,4]benzo[1,2-d]thiazol-7-yl)methyl (6-methoxypyridin-3-yl)carbamate], the IC50 was found to be 4.4 nM.

With `COc1cnc2c(-c3nc4cc(F)c5c(c4s3)C[C@@](C)(CNC(=O)OCC(C)C)O5)cc(C)cc2n1` [Example 241, (S)-isobutyl ((5-fluoro-2-(2-methoxy-7-methylquinoxalin-5-yl)-7-methyl-7,8-dihydrobenzofuro[5,4-d]thiazol-7-yl)methyl)carbamate], the IC50 worked out at 8.6 nM.

With `COc1cnc2c(-c3nc4c(C)cc5c(c4s3)OCC(COC(=O)Nc3cncc(C(F)(F)F)c3)O5)cc(C)cc2n1` (stereo not shown) [Example 135], the IC50 turned out to be 1.4 nM.

As for `COc1cnc2c(-c3nc4c(C(O)C(C)(C)C)cc5c(c4s3)OCCO5)cc(C)cc2n1` (single isomer, unassigned) [Example 277, 1-(2-(2-methoxy-7-methylquinoxalin-5-yl)-7,8-dihydro-[1,4]dioxino[2′,3′:3,4]benzo[1,2-d]thiazol-4-yl)-2,2-dimethylpropan-1-ol], the IC50 turned out to be 2.3 nM.

As for `COc1cnc2c(-c3nc4c(C(F)F)cc5c(c4s3)OCC(COC(=O)Nc3ccnc(C)c3)O5)cc(C)cc2n1` (stereo not shown) [Example 74, (4-(difluoromethyl)-2-(2-methoxy-7-methylquinoxalin-5-yl)-7,8-dihydro-[1,4]dioxino[2′,3′:3,4]benzo[1,2-d]thiazol-7-yl)methyl (2-methylpyridin-4-yl)carbamate], the IC50 came to 8.6 nM.

The term IC50 denotes the midpoint of a concentration-inhibition curve.
